Results: US10383333B2, “Carbamate compound and use thereof” (SUMITOMO CHEMICAL COMPANY, LIMITED, priority 2015, dated 2019)

Test system: wheat rust fungus (Puccinia recondita)
Assay: Test Example 2: wheat rust, foliar spray before inoculation
Assay type: in vivo
Settings: 500 ppm foliar spray on wheat (Shirogane), inoculated 5 days after spraying, formulated per Formulation Example 6

`COC(=O)Nc1ccccc1COc1ccc(-c2ccccn2)cc1` [methyl N-(2-{[4-(pyridine-2-yl)phenoxy)methyl}phenyl)carbamate] was tested. Which “area of the lesion relative to untreated wheat” value did it give?
Its value is at least 70%.
